Molecules are shown by their SMILES. “And” between values parts separate entries of the source, which are not always exact repeats. Identical values can stand only once.

Consider two compounds from patent US9549905B2, “Treatment of inflammatory and infectious skin disorders” (The Regents of the University of California, priority 2011, dated 2017).

The subject of series [1] is Propionibacterium acnes ATCC strain 6919. Kind of series: Colony Forming Unit (CFU) assay of P. acnes over 10 days. The series is classed as cell-based. Particulars: for bactericidal activity in comparison at equal concentration: 75 μg/mL, FIG. 2D; for antimicrobial activity over time (words): CFU assay, irrespective of concentration. On the procedure:
FIG. 2A. […] Bacterial growth was assessed in terms of the growth factor of P. acnes (Y-axis), determined by the change in the number of bacteria compared to baseline control (set at 1 on Day 0). Concentrations were obtained over a 10-day period and plotted logarithmically. FIG. 2B. Colony Forming Unit (CFU) assays of P. acnes incubated with Benzoyl Peroxide (BPO). FIG. 2C. […] FIG. 2D. […] Having described the invention in general terms, the following specific example is offered for purpose of illustration and for illustration only, and no intention to limit the invention is to be inferred there from. […] Resveratrol and benzoyl peroxide were obtained from Sigma-Aldrich St. Louis, Mo. […] Propionibacterium acnes ATCC […] strain 6919 was grown anaerobically at 37° C. in Reinforced Clostridial Media (Oxoid) for 3 days and collected in the exponential phase of growth by centrifugation. Bacteria were washed with pH 7 sodium phosphate buffer supplemented by 0.03% Trypticase Soy Media and quantified by reading with a spectrophotometer at 600 nm and applying a conversion of ˜1×10^8 bacteria=1 absorbance unit. […] Samples were incubated anaerobically at 37° C. for intervals of 1, 2, 3, 7, and 10 days and then plated on brucella agar with 5% sheep blood supplemented with hemin and vitamin K (Remel). […] The results were plotted logarithmically as multiples of the initial concentration, which was designated as 1 at Day 0.

For series [2], the system named is IL-12 secretion by primary human monocytes. Description: Cytokine IL-12 assay in monocytes stimulated with P. acnes sonicate. The format is cell-based. The conditions noted are these: compared with 1% DMSO / untreated. An excerpt:
FIG. 3A. Cytokine IL-12 Assay.
The anti-inflammatory properties of resveratrol, benzoyl peroxide and the combination of resveratrol and benzoyl peroxide are exemplified by the cytokine IL-12 assay. […] To address this, we next investigated the cytotoxic effects of the various treatment groups.
To address this, we next investigated the cytotoxic effects of the various treatment groups.

Series [3] has as its system primary human monocytes. Kind of series: MTS cytotoxicity assay. The conditions noted are these: for monocytes killed: 10 μg/mL. The format is cell-based. As for the experimental part:
FIG. 3B. Cytotoxicity Assay. […] The percentage of cells still viable after 16 hour incubation (compared to 1% DMSO control) were assessed (Y-axis) by measuring absorbance of the sample, which is proportional to the number of viable cells.
The cytotoxicity of resveratrol, benzoyl peroxide, and the combination of resveratrol and benzoyl peroxide was also assessed. (see FIG. 3B) We analyzed the cell viability of human monocytes using the MTS cytotoxicity assay. […] The direct cell cytotoxicity of benzoyl peroxide may explain the decrease in IL-12 activity, more a result of direct cell death, than actual anti-inflammatory properties of benzoyl peroxide.
We analyzed the cell viability of human monocytes using the MTS cytotoxicity assay.

Series [4] deals with P. acnes. Description: Transmission electron microscopy of P. acnes. The series is classed as cell-based, Propionibacterium acnes. Particulars: 1 mg/mL, 24 hours. The source says: FIG. 4A. Electron Microscopy of P. acnes control without stimulus. […] Samples were visualized at 80 kV on a JEOL 100CX electron microscope. Bacteria were magnified according to the scale indicated below the main image, with higher magnification images located in the lower left inset.
This implies cellular lysis and death of the majority of bacterium, leaving only remaining unaffected bacteria to replicate and grow.
Resveratrol induced structural changes in the cell membrane of P. acnes. […] This implies cellular lysis and death of the majority of bacterium, leaving only remaining unaffected bacteria to replicate and grow.

Series [5] relates to P. acnes. Kind of series: P. acnes growth inhibition, 48 hour incubation and plating at different dilutions. The format is cell-based, Propionibacterium acnes. On the procedure:
Serial dilutions of P. acnes plated without treatment provided qualitative comparisons to experimental groups treated with RES. Significant growth inhibition of P. acnes was first noted at 50 μg/mL and was dose dependent. […] (FIG. 2A).

With `O=C(OOC(=O)c1ccccc1)c1ccccc1` [BPO, Benzoyl Peroxide], the “fold more bactericidal than RES” value in series [1] (50 μg/mL, at 24 hours) was about 1000 ×. Besides, the “bactericidal activity in comparison at equal concentration” value in series [1] (10-day period) is given as “short but immediate bactericidal activity”. Besides, the “antimicrobial activity over time (words)” value in series [1] is given as “minimal effect on bacterial growth after 24 hours”; in series [1] (listed as benzoyl peroxide), “virtually no activity remaining after 48 hours”. In series [1] (data not shown), the “lowest dose with bactericidal activity” value worked out at 25 µg/mL. Further, the “concentration from which IL-12 secretion was diminished” value in series [2] is at least 2.5 µg/mL. For the same compound, in series [3] (16 hour incubation, relative to 1% DMSO control), the monocytes killed result is on record as “greater than 90%”. Also, the “lowest concentration toxic to monocytes” value in series [3] (human, 16 h) amounted to 5 µg/mL. Further, the “structural changes of P. acnes” value in series [4] is “structurally identical to control”.
Take `Oc1ccc(C=Cc2cc(O)cc(O)c2)cc1` [RES, 3,5,4′-trihydroxystilbene]: the “bactericidal activity in comparison at equal concentration” value in series [1] (10-day period) was “slow but sustained bactericidal activity”. Also, the “concentrations with sustained and dose dependent bactericidal effect” value in series [1] (10-day period, FIG. 2A) is 75 µg/mL and 100 µg/mL. Also, in series [1], the “antimicrobial activity over time (words)” value is “slow but sustained antimicrobial response”. Further, the “growth equivalent to dilution of untreated P. acnes plates” value in series [5] (50 μg/mL, 48 hours) is about 1000 × dilution. Besides, in series [5] (48 hours incubation, about 1.33×10^6 bacteria), the “concentration at which significant growth inhibition of P. acnes was first noted” value was determined as 50 µg/mL. Moreover, the “concentration from which IL-12 secretion was diminished” value in series [2] is at least 10 µg/mL. Also, the monocytes killed result in series [3] (human, 16 h) is “approximately 35%”. Also, the “structural changes of P. acnes” value in series [4] is “loss of membrane definition due to intramembranous edema and loss of well defined extracellular fimbrial structures”.
